Results as given in paper PMC6806071 (2019).

Legend:
[1] = test system: 56-mer VTD3 aptamer (DNA, aptamer) AGCAGCACAGAGGTCATGGGGGGTGTGACTTTGGTGTGCCTATGCGTGCTACGGAA; test: curcumin fluorescence displacement; settings: 0.1 mM NaCl; 5% ethanol; aptamer 100 nM, curcumin 0.6 µM displaced; up to 1 µM
[2] = test system: 56-mer VTD3 aptamer (DNA, aptamer) AGCAGCACAGAGGTCATGGGGGGTGTGACTTTGGTGTGCCTATGCGTGCTACGGAA; test: fluorescence titration, Langmuir fit; settings: 0.1 mM NaCl (methods: 0.1 M NaCl); 5% ethanol, 5 and 25 °C; curcumin 0.6 µM; b27 prints 0.7 µM, b25 0.7 nM
[3] = test system: 75-mer BPA aptamer (DNA, aptamer) ATACGAGCTTGTTCAATAGGAAATCACGATTAGGTCCTCCGTCTGTGTGCGGTTGTGGTGATAGTAAGAGCAATC; test: fluorescence enhancement; settings: 0.1 mM NaCl; aptamer 100 nM, curcumin 0.6 µM
[4] = test system: Random ssDNA (70-mer) (DNA, single strand) AGGCCTAAGGGCATAATTAGCTCGAGCTCGAAAGGGGTTATATGATGATTTGAATTCATGGGGCCCGACT; test: curcumin fluorescence displacement; settings: 0.1 mM NaCl, 5% ethanol, curcumin 0.6 µM, no sensor response
[5] = test system: 56-mer VTD3 aptamer (DNA, aptamer) AGCAGCACAGAGGTCATGGGGGGTGTGACTTTGGTGTGCCTATGCGTGCTACGGAA; test: CD; curcumin fluorescence displacement; settings: 0.1 mM NaCl; CD: aptamer 0.8 µM, VTD3 20 µM; curcumin displaced
[6] = test system: 56-mer VTD3 aptamer (DNA, aptamer) AGCAGCACAGAGGTCATGGGGGGTGTGACTTTGGTGTGCCTATGCGTGCTACGGAA; test: fluorescence enhancement; CD; settings: 0.1 M NaCl; 5% ethanol; SYBR Green I 5 µM
[7] = test system: 75-mer BPA aptamer (DNA, aptamer) ATACGAGCTTGTTCAATAGGAAATCACGATTAGGTCCTCCGTCTGTGTGCGGTTGTGGTGATAGTAAGAGCAATC; test: curcumin fluorescence displacement; settings: 0.1 mM NaCl; 5% ethanol; aptamer 100 nM, curcumin 0.6 µM displaced

Q: For `C[C@]12C=CC(=O)C=C1CC[C@@H]1[C@@H]2C(=O)C[C@@]2(C)[C@H]1CC[C@]2(O)C(=O)CO`, which binding [1] is on record?
A: no

Q: How did the KD [2] turn out when `COc1cc(/C=C/C(=O)CC(=O)/C=C/c2ccc(O)c(OC)c2)ccc1O` was run?
A: 0.7 nM

Q: And the binding [3]?
A: yes

Q: Which binding ([4]; VTD3 up to 1 µM) does the source give for `C=C1CC[C@H](O)C/C1=C/C=C1\CCC[C@]2(C)[C@@H]([C@H](C)CCCC(C)C)CC[C@@H]12` here?
A: no

Q: What about the binding [5] of the same compound?
A: yes

Q: Which binding [1] does the source give for `C[C@]12CC[C@@H]3c4ccc(O)cc4CC[C@H]3[C@@H]1CC[C@@H]2O` here?
A: no

Q: Which binding [6] does the source give for `CCCN(CCCN(C)C)c1cc(C=C2Sc3ccccc3N2C)c2ccccc2[n+]1-c1ccccc1` here?
A: yes

Q: `CC(C)(c1ccc(O)cc1)c1ccc(O)cc1` was tested. Which binding [4] did it give?
A: no

Q: What about the binding [7] of the same compound?
A: yes

Q: `CC(=O)[C@H]1CC[C@H]2[C@@H]3CCC4=CC(=O)CC[C@]4(C)[C@H]3CC[C@]12C` was tested. Which binding [1] did it give?
A: no

Q: With `C=C1CC[C@H](O)C/C1=C/C=C1\CCC[C@]2(C)[C@@H]([C@H](C)/C=C/[C@H](C)C(C)C)CC[C@@H]12` as the compound, how does the binding [1] read?
A: no
